Test results taken from US7709511B2, “Benzothiazolone derivatives” (AstraZeneca AB, priority 2005, dated 2010).
Where a name gives a salt, the structure may show the parent alone.

Tests used:
Adrenergic β2 = molecular target: T1, Adrenergic β2 (Homo sapiens, UniProt P07550); assay: Alternative adrenergic β2 mediated cAMP production in H292 cells (AlphaScreen cAMP detection); assay type: cell-based; conditions: for EC50: cAMP, test compounds incubated 60 minutes at room temperature, 300 μM rolipram, read-out: β2 pEC50 (converted); for β2 Int Act: fraction relative to the maximum activity determined for formoterol, 60 minutes incubation
T1 construct: endogenous in cells; host or cells: H292 cells
Description: Alternative Adrenergic β2 Mediated cAMP Production Cell Preparation
H292 cells were grown in 225 cm2 flasks incubator at 37° C., 5% CO2 in RPMI medium containing, 10% (v/v) FBS (foetal bovine serum) and 2 mM L-glutamine.
Adherent H292 cells were removed from tissue culture flasks by treatment with Accutase™ cell detachment solution for 15 minutes. Flasks were incubated for 15 minutes in a humidified incubator at 37° C., 5% CO2. Detached cells were re-suspended in RPMI media (containing 10% (v/v) FBS and 2 mM L-glutamine) at 0.05×10^6 cells per mL. 5000 cells in 100 μL were added to each well of a tissue-culture-treated 96-well plate and the cells incubated overnight in a humidified incubator at 37° C., 5% CO2. The culture media was removed and cells were washed twice with 100 μL assay buffer and replaced with 50 μL assay buffer (HBSS solution containing 10 mM HEPES pH7.4 and 5 mM glucose). Cells were rested at room temperature for 20 minutes after which time 25 μL of rolipram (1.2 mM made up in assay buffer containing 2.4% (v/v) dimethylsulphoxide) was added. Cells were incubated with rolipram for 10 minutes after which time test compounds were added and the cells were incubated for 60 minutes at room temperature. The final rolipram concentration in the assay was 300 μM and final vehicle concentration was 1.6% (v/v) dimethylsulphoxide. The reaction was stopped by removing supernatants, washing once with 100 μL assay buffer and replacing with 50 μL lysis buffer. The cell monolayer was frozen at −80° C. for 30 minutes (or overnight).
AlphaScreen™ cAMP Detection
The concentration of cAMP (cyclic adenosine monophosphate) in the cell lysate was determined using AlphaScreen™ methodology. The frozen cell plate was thawed for 20 minutes on a plate shaker then 10 μL of the cell lysate was transferred to a 96-well white plate. 40 μL of mixed AlphaScreen™ detection beads pre-incubated with biotinylated cAMP, was added to each well and the plate incubated at room temperature for 10 hours in the dark. The AlphaScreen™ signal was measured using an EnVision spectrophotometer (Perkin-Elmer Inc.) with the recommended manufacturer's settings. cAMP concentrations were determined by reference to a calibration curve determined in the same experiment using standard cAMP concentrations. Concentration response curves for agonists were constructed and data was fitted to a four parameter logistic equation to determine both the pEC50 and Intrinsic Activity. Intrinsic Activity was expressed as a fraction relative to the maximum activity determined for formoterol in each experiment.

[1] = molecular target: T2, recombinant human α1D receptor (Homo sapiens, UniProt P25100); assay: Adrenergic α1D selectivity assay, inhibition of [3H]-prazosin binding to membranes; conditions: HEK293 membranes, [3H]-prazosin 0.3 nM; read-out: α1 bind pIC50 (converted)
T2 construct: made in house; host or cells: HEK293 cells (membranes)
T2 sequence (P25100 1-572): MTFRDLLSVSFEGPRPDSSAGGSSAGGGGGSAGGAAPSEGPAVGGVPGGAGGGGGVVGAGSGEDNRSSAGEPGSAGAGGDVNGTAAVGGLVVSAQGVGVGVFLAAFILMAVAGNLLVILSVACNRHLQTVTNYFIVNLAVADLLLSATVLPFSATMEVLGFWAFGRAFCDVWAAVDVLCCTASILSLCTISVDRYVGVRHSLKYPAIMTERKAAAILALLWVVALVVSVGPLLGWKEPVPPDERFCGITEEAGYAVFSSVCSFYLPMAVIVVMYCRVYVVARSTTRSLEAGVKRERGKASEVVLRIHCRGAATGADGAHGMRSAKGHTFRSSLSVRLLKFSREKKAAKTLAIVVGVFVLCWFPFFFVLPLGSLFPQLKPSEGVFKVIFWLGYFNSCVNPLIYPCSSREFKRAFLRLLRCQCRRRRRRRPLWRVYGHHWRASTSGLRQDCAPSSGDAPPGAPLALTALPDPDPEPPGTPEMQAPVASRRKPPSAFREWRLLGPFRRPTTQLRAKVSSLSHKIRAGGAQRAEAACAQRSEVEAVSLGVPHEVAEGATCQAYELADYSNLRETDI
Description: Membranes were prepared from human embryonic kidney 293 (HEK293) cells expressing recombinant human α1D receptor. These were diluted in Assay Buffer (50 mM HEPES, 1 mM EDTA, 0.1% gelatin, pH 7.4) to provide a final concentration of membranes that gave a clear window between maximum and minimum specific binding.
Assays were performed in U-bottomed 96-well polypropylene plates. 10 μL [^3H]-prazosin (0.3 nM final concentration) and 10 μL of test compound (10× final concentration) were added to each test well. For each assay plate 8 replicates were obtained for [^3H]-prazosin binding in the presence of 10 μL vehicle (10% (v/v) DMSO in Assay Buffer; defining maximum binding) or 10 μL BMY7378 (10 μM final concentration; defining non-specific binding (NSB)). Membranes were then added to achieve a final volume of 100 μL. The plates were incubated for 2 hours at room temperature and then filtered onto PEI coated GF/B filter plates, pre-soaked for 1 hour in Assay Buffer, using a 96-well plate Tomtec cell harvester. Five washes with 250 μL wash buffer (50 mM HEPES, 1 mM EDTA, pH 7.4) were performed at 4° C. to remove unbound radioactivity. The plates were dried then sealed from underneath using Packard plate sealers and MicroScint-O (50 μL) was added to each well. The plates were sealed (TopSeal A) and filter-bound radioactivity was measured with a scintillation counter (TopCount, Packard BioScience) using a 3-minute counting protocol.
Total specific binding (B0) was determined by subtracting the mean NSB from the mean maximum binding. NSB values were also subtracted from values from all other wells. […] Data was fitted to a four parameter logistic equation to determine the compound potency, which was expressed as pIC50 (negative log molar concentration inducing 50% inhibition of [^3H]-prazosin binding).

T1 sequence (P07550 whole entry): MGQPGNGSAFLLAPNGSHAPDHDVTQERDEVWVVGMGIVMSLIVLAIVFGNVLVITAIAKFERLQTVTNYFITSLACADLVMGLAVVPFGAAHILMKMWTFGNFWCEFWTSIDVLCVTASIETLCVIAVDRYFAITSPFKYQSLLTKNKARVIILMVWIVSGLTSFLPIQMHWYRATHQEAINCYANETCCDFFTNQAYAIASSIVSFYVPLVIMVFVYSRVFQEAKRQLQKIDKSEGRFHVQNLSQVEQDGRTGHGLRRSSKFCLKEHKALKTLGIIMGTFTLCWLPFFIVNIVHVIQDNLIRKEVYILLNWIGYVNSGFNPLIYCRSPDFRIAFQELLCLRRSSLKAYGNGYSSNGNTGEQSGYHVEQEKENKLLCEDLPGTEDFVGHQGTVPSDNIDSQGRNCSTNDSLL

Structure (SMILES) | EC50 (Adrenergic β2) | β2 Int Act (Adrenergic β2) | IC50 [1]
CCN(CC)CCN(CCNCCc1ccc(O)c2[nH]c(=O)sc12)C(=O)CCOCCc1cccc(C)c1 [Example 28, N-[2-(Diethylamino)ethyl]-N-(2-{[2-(4-hydroxy-2-oxo-2,3-dihydro-1,3-benzothiazol-7-yl)ethyl]amino}ethyl)-3-[2-(3-methylphenyl)ethoxy]propanamide] | 3.16 nM | 0.6 | 1260 nM
CCN(CC)CCN(CCNCCc1ccc(O)c2[nH]c(=O)sc12)C(=O)CCOCCc1ccc(Cl)cc1 [Example 26, 3-[2-(4-Chlorophenyl)ethoxy]-N-(2-diethylaminoethyl)-N-{2-[2-(4-hydroxy-2-oxo-2,3-dihydro-1,3-benzothiazol-7-yl)ethylamino]ethyl}propanamide dihydrobromide] | 15.8 nM | 0.6 | 3160 nM
